Where two headings read alike, the source gives them in different places.

What all share (type): cell-based, human
The subject of assay [1] is pUAS-1-driven EYFP expression in HEK293T cells transfected with GAL4- and VPR-fused PROTAC target protein / E3 ubiquitin ligase. Put plainly: PROTAC-CID inducible EYFP gene activation, flow cytometry. Conditions: for Bottom (best-fit value) / Span (best-fit value) / Top (best-fit value): Table 4 nonlinear regression of EYFP activation; for Bottom (best-fit value) / Span (best-fit value) / Top (best-fit value) / Hillslope (best-fit value) / logEC50 (best-fit value): FIG. 13A; for Hillslope (best-fit value) / logEC50 (best-fit value): Table 4 nonlinear regression; for increase in EYFP expression / EYFP induction compared to DMSO-treated controls: bromodomain-VPR fusion co-transfected with GAL4-VHL, FIG. 1C 5 μM dTRIM24, FIG. 1D 100 nM MZ1 or 1 μM AT1. The method, then:
(§1) Fluorescence assay using flow cytometry analysis. Cells were treated with 0.05% Trpsin EDTA (Thermo Fisher Scientific no. 25300054) or TrypLE (Thermo Fisher Scientific no. 12605028) after transfection and centrifuged at 3000 g for 5 min. Supernatant was removed and the cell pellet was resuspended with 200 μL phosphate buffered saline (PBS) without calcium and magnesium (Thermo Fisher Scientific no. 10010023). Cells were transferred into 12×75 mm flow tubes (Global Scientific no. 110410). Cells were analyzed by MA900 flow cytometry (SONY). 405 nm laser (FL6 filter) was used for testing the BFP channel. 488 nm (FL1 filter) was used for testing the EYFP and GFP channel. Automated alignment using Automatic Setup Beads kit (SONY no. LE-B3001) is performed before running samples. In FIGS. 3A, 3B, and 17, experiments were performed under 2% FSC, 17% BSC, 24% FL1. In FIG. 18, experiments were performed under 2% FSC, 17% BSC, 27% FL1. All the other experiments were performed under 2% FSC, 17% BSC, 24% FL1 and 27% FL6. Flow cytometry data was processed and analyzed by FlowJo 10. Events were first gated with forward scatter-Area (FSC-A) and side scatter-Area (SSC-A) to select viable cells and remove the debris and dead cells. Cells were further gated with FSC-A and FSC-Height (FSC-H) for selecting single cells. The mean intensity of the reporter fluorescent protein (BFP and EYFP) in viable and single cell populations were calculated by FlowJo 10 as the mean of FL6-A and FL1-A. When calculating the fold change of relative fluorescence units (RFU), the relative fluorescence units of EYFP was calculated by dividing the mean of fluorescence intensity of EYFP with the mean of BFP fluorescence intensity for normalization as the following formula: […]
(§2) Next, the mean of the normalized relative fluorescence units of induced group were divided by the value of control group for calculating the fold change as the following formula: […]
(§3) Transfection and microscopy. HEK293T cells (American Type Culture Collection, no. CRL-3216) were cultured with high-glucose Dulbecco's modified Eagle's medium (DMEM) (Thermo Fisher Scientific no. 10569044) with 10% fetal bovine serum (FBS) (Thermo Fisher Scientific no. 10437028) and 1×penicillin-streptomycin (Thermo Fisher Scientific no. 15140122) at 37° C. with 5% CO2. Except for the data in FIGS. 3C, 3E, and 3H, cells were plated into 96 well plate (Corning no. 3598) and transfected by Polyethyleneimine Max (PEI Max) (Polysciences no. 24765-1). 1.5 μL PEI Max (1 mg/mL, pH=7.1) and 100 μl DMEM were mixed with plasmids to be slowly dropped into the cell medium after 30 mins of incubation. Medium was changed 12 hours post-transfection. The inductive small molecules, including Rapamycin (STEM CELL technologies no. 73362), dTAG-13 (TOCRIS no. 6605/5), dTAG^V-1 (TOCRIS no. 6744-5), dBRD9 (TOCRIS no. 6606/5), dTRIM24 (TOCRIS no. 6607/5), MZ1 (TOCRIS no. 6154/5), AT1 (TOCRIS no. 6356/5), TL13-12 (TOCRIS no. 6744/5), TL13-112 (TOCRIS no. 6745/5), dTAG-7 (TOCRIS no. 69125), ZXH3-26 (TOCRIS no. 6713/5) and ABA (GoldBio no. A-050-100), dissolved in Dimethyl sulfoxide (DMSO) (Sigma, no. D8418) were added. For the microscopy observation, the images were taken by Microscopy EVOS (Life Technologies) and processed by ImageJ (Schneider et al., 2012). If not otherwise noted, 60 ng of each plasmid were used for each sample.
(§4) Step-by-step fluorescence protein activation assay protocol. Reagents: • 1. PEI Max (Polysciences no. 24765-1) • 2. DMEM, high glucose, GlutaMAX™ Supplement, pyruvate (Thermo Fisher Scientific no. 10569044) • 3. Penicillin-Streptomycin (10,000 U/mL) (Thermo Fisher Scientific no. 15140122) • 4. Fetal Bovine Serum 500ML (FBS) (Thermo Fisher Scientific no. 10437028) • 5. TrypLE™ Express Enzyme (1×), phenol red (Thermo Fisher Scientific no. 12605068) • 6. PBS pH=7.4 (Thermo Fisher Scientific no. 10010023) • 7. Sony sorting chip […] for MA900 (SONY no. LE-C3210) • 8. Automatic Setup Beads kit (SONY no. LE-B3001) • 9. […]

Assay [2] deals with pUAS-2-Fluc expression in HEK293T cells with cognate or non-cognate GAL4/VPR protein pairs. Put plainly: Orthogonality analysis, Firefly luciferase (Fluc) luminescence. The settings on record: seven different protein pairs, 2 days, FIGS. 2A and 14. The procedure: Luciferase luminescence intensity measurement. Before transfection, HEK293T cells were seeded in clear bottom 96 well assay plates (Corning no. 3610) with 100 μL DMEM with 10% FBS and 1× penicillin-streptomycin at 37° C. with 5% CO2. When cells reached 50% confluency, 1.5 μL PEI Max (1 mg/mL, pH=7.1) and 100 μL DMEM were mixed with 60 ng of each plasmid (GAL4 and VPR fused target protein or E3 ubiquitin ligase, pUAS-2-Fluc) for 30 min at room temperature. Mixture was transferred into cells gently. 12 h after transfection, medium was changed, and the inductive small molecules were supplied. 2-days post induction, 120 μL of medium was aspirated from each well containing 200 μL of medium, leaving 80 μL of medium per well, then treated with 40 μL of lysis buffer (500 mM DTT (Sigma no. D0632), 10 mM coenzyme A (RPI no. C95275), 100 mM ATP (Thermo Fisher Scientific no. R1441), 80 mg/mL D-luciferin (GoldBio no. LUCNA-100), Triton lysis buffer (0.1082 M Tris-HCl, 0.0419 M Tris-Base, 75 mM NaCl, 3 mM MgCl2)). Plate was shaken with 20 seconds in “Orbital” mode with frequency of 432 rpm and Amplitude of 1 mm to lysis the cells. Recording the luminescence by plate reader Infinite M200 (TECAN) with 1000 ms integration time using Megellan v1.7 (TECAN). Mean of luciferase luminescence relative light units (RLU) was calculated by the average of three biological replications. Normalized RLU were calculated by dividing RLU of the tested group with mean of RLU of DMSO treated control group for normalization: […]

Assay [3] can be described thus: PROTAC-CID inducible EYFP gene activation, flow cytometry. The settings on record: Homo sapiens, HEK-293T, FIG. 13A. The procedure:
as §1, §2, §3, §4

Where [4] appears, read: Table 4 nonlinear regression, Prism 9 [Agonist] vs. response variable slope (four parameters), no unit in table (the source gives nM), read-out: EC50 (best-fit value).
Setting [5] is: dose-response, read-out: EC50 for gene activation.

Take `Nc1cccc2c1CN(C1CCC(=O)NC1=O)C2=O` (centres unmarked) [Lenalidomide]: the “inducible gene activation efficiency compared with dTAG-13 PROTAC-CID” value in assay [1] (CRBN-VPR with GAL4 fused IKZF1 or IKZF3, Lenalidomide 1 μM vs 100 nM dTAG-13, 2 days, FIGS. 11D-11E) is reported as “significantly less efficient than the dTAG-13 PROTAC-CID system”.
Regarding `CC(=O)N[C@H](C(=O)N1C[C@H](O)C[C@H]1C(=O)NCc1ccc(-c2scnc2C)cc1)C(C)(C)SCCCCCCNC(=O)C[C@@H]1N=C(c2ccc(Cl)cc2)c2c(sc(C)c2C)-n2c(C)nnc21` [AT1], the “orthogonality: Fluc activation with cognate vs non-cognate protein partners” value (“orthogonality … vs non-cognate protein partners” below) in assay [2] is recorded as “interact with the same protein pairs”.
Regarding `Cc1cc(Nc2ncc(Cl)c(Nc3ccccc3S(=O)(=O)C(C)C)n2)c(OC(C)C)cc1C1CCN(CCOCCOCCNC(=O)CNc2cccc3c2C(=O)N(C2CCC(=O)NC2=O)C3=O)CC1` (centres unmarked) [TL13-112], the “orthogonality … vs non-cognate protein partners” value in assay [2] is listed as “interact with the same protein pairs”.
For the molecule `COc1cc(N2CCN(CCOCCOCCNC(=O)CNc3cccc4c3C(=O)N(C3CCC(=O)NC3=O)C4=O)CC2)ccc1Nc1ncc(Cl)c(Nc2ccccc2S(=O)(=O)C(C)C)n1` (centres unmarked) [TL13-12], the “orthogonality … vs non-cognate protein partners” value in assay [2] was “interact with the same protein pairs”.
Take `CCCOc1cccc(Oc2cc3c(cc2NS(=O)(=O)c2cccc(C(=O)NCCOCCOCCOCC(=O)N[C@H](C(=O)N4C[C@H](O)C[C@H]4C(=O)NCc4ccc(-c5scnc5C)cc4)C(C)(C)C)c2)n(C)c(=O)n3C)c1` [dTRIM24]: in assay [3] (setting [4]), the EC50 is 6350 nM. For the same molecule, the EC50 in assay [3] (setting [5]) worked out at 6300 nM. For the same molecule, in assay [1] (HEK293T transfected with GAL4-VHL, TRIM24^BD-VPR, BRD4^BD2-VPR and reporter plasmid, FIG. 2E: dTRIM24, MZ1 100 nM), the “grades of EYFP intensity” value is 37 fold. Besides, in assay [1], the “Bottom (best-fit value)” value is 0.5037, the “Span (best-fit value)” value is recorded as 1430, the “Top (best-fit value)” value is given as 1431 and the “Hillslope (best-fit value)” value is given as 1.463. Moreover, the “logEC50 (best-fit value)” value in assay [1] is recorded as 3.803. The “fold change gene activation activity” value in assay [1] (at 5 μM) is recorded as “more than 500 fold”. Also, the “fold change in EYFP expression” value in assay [1] (below 1 μM) is “less than 100 fold”.
`CC1=CC(=O)CC(C)(C)[C@@]1(O)/C=C/C(C)=C\C(=O)O` [ABA, abscisic acid]: the EC50 in assay [3] (setting [4]) stood at 763 nM. For the same molecule, the EC50 in assay [3] (setting [5]) came out at 763 nM. In assay [1], the “Bottom (best-fit value)” value is reported as 1.587, the “Span (best-fit value)” value was determined as 77.84, the “Top (best-fit value)” value is 79.43 and the “Hillslope (best-fit value)” value turned out to be 2.083. For the same molecule, the “logEC50 (best-fit value)” value in assay [1] is 2.882.

B1: BRD4^BD2-VPR: Fusion protein of VPR with bromodomain BD2 of BRD4 (SEQ ID NO: 7) (protein)
chain: MPKKKRKVGGGSPGGGGSSKVSEQLKCCSGILKEMFAKKHAAYAWPFYKPVDVEALGLHDYCDIIKHPMDMSTIKSKLEAREYRDAQEFGADVRLMFSNCYKYNPPDHEVVAMARKLQDVFEMRFAKMPDGGGSRADPKKKRKVEASGSGRADALDDFDLDMLGSDALDDFDLDMLGSDALDDFDLDMLGSDALDDFDLDMLINSRSQYLPDTDDRHRIEEKRKRTYETFKSIMKKSPFSGPTDPRPPPRRIAVPSRSSASVPKPAPQPYPFTSSLSTINYDEFPTMVFPSGQISQASALAPAPPQVLPQAPAPAPAPAMVSALAQAPAPVPVLAPGPPQAVAPPAPKPTQAGEGTLSEALLQLQFDDEDLGALLGNSTDPAVFTDLASVDNSEFQQLLNQGIPVAPHTTEPMLMEYPEAITRLVTGAQRPPDPAPAPLGAPGLPNGLLSGDEDFSSIADMDFSALLGSGSGSRDSREGMFLPKPEAGSAISDVFEGREVCQPKRIRPFHPPGSPWANRPLPASLAPTPTGPVHEPVGSLTPAPVPQPLDPAPAVTPEASHLLEDPDEETSQAVKALREMADTVIPQKEEAAICGQMDLSHPPPRGHLDELTTTLESMTEDLNLDSPLTPELNEILDTFLNDECLLHAMHISTGLSIFDTSLFTSGGGSKRPAATKKAGQAKKKKSR
As to B1, the “increase in EYFP expression / EYFP induction compared to DMSO-treated controls” value in assay [1] is 441 fold.

B2: TRIM24BD-VPR: Fusion protein of VPR with the bromodomain of TRIM24 (SEQ ID NO: 4) (protein)
chain: MPKKKRKVGGGSPGGGGSPNEDWCAVCQNGGELLCCEKCPKVFHLSCHVPTLTNFPSGEWICTFCRDLSKPEVEYDCDAPSHNSEKKKTEGLVKLTPIDKRKCERLLLFLYCHEMSLAFQDPVPLTVPDYYKIIKNPMDLSTIKKRLQEDYSMYSKPEDFVADFRLIFQNCAEFNEPDSEVANAGIKLENYFEELLKNLYPGGGSRADPKKKRKVEASGSGRADALDDFDLDMLGSDALDDFDLDMLGSDALDDFDLDMLGSDALDDFDLDMLINSRSQYLPDTDDRHRIEEKRKRTYETFKSIMKKSPFSGPTDPRPPPRRIAVPSRSSASVPKPAPQPYPFTSSLSTINYDEFPTMVFPSGQISQASALAPAPPQVLPQAPAPAPAPAMVSALAQAPAPVPVLAPGPPQAVAPPAPKPTQAGEGTLSEALLQLQFDDEDLGALLGNSTDPAVFTDLASVDNSEFQQLLNQGIPVAPHTTEPMLMEYPEAITRLVTGAQRPPDPAPAPLGAPGLPNGLLSGDEDFSSIADMDFSALLGSGSGSRDSREGMFLPKPEAGSAISDVFEGREVCQPKRIRPFHPPGSPWANRPLPASLAPTPTGPVHEPVGSLTPAPVPQPLDPAPAVTPEASHLLEDPDEETSQAVKALREMADTVIPQKEEAAICGQMDLSHPPPRGHLDELTTTLESMTEDLNLDSPLTPELNEILDTFLNDECLLHAMHISTGLSIFDTSLFTSGGGSKRPAATKKAGQAKKKKSR
As to B2, the “increase in EYFP expression / EYFP induction compared to DMSO-treated controls” value in assay [1] was 592 fold.
